pIC50: −log10 of the molar value. Like-named read-outs stand apart in the source and are kept apart here.
Key:
[1] = molecular target: Recombinant human His-tagged Kat6a protein (amino acids 194-810) (Homo sapiens (Human), UniProt Q92794); experiment: Kat6a activity assay (TR-FRET, acetylation of biotinylated Histone-H4-derived peptide); assay type: biochemical; settings: 60 mins at 22° C., read-out: KAT6A-DPF/HAT domain IC50 [mol/l] (arithmetic mean)
Outline: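 Sf9-expressed human His-Kat6a (aa 194-810) incubated 60 min at 22 °C with compounds (0.01-20 μM) in Tris pH 8 buffer containing 220 nM biotinylated H4 peptide (aa 1-24) and 600 nM acetyl-CoA. Acetyl-K8 detected by TR-FRET (665/620 nm ratio); IC50 by four-parameter fit versus DMSO controls.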

[2] = system: MDA-MB-436 cells; experiment: Proliferation assay MDA-MB-436, negative control cell line (Alamar Blue, 144 h); assay type: cell-based; settings: arithmetic mean
Outline: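 MDA-MB-436 cells (3000/well, DMEM/Ham's F12 with 2.5% FBS) treated 24 h after plating with compounds at 2.0×10E-5 to 2.0×10E-9 M (9 dilutions, 0.2% DMSO), triplicates, 144 h at 37 °C, 5% CO2. Viability by Alamar Blue, 2 h, fluorescence at 590 nm.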

[3] = system: ZR-75-1 cells; experiment: Proliferation assay ZR-75-1 (Alamar Blue, 144 h); assay type: cell-based; settings: arithmetic mean, read-out: ZR75-1 proliferation assay, EC50 [M] (arithmetic mean)
Outline: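 Cells seeded at 3000/well in RPMI 1640 with 2.5% FBS and treated 24 h later across 2.0×10E-5 to 2.0×10E-9 M (9 dilutions, 0.2% DMSO, triplicate). After 144 h at 37 °C, 5% CO2, viability read by Alamar Blue fluorescence at 590 nm following 2 h reagent incubation.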

[4] = molecular target: Recombinant human GST-tagged Kat6b protein (431-end); experiment: Kat6b activity assay (TR-FRET, acetylation of biotinylated Histone-H4-derived peptide); assay type: biochemical; settings: 30 mins at 22° C., read-out: KAT6B activity assay IC50 [mol/l] (arithmetic mean)
Description: Kat6b inhibitory activities of the compounds described in the present invention were quantified using a Fluorescence Resonance Energy Transfer (TR-FRET) assay which measures acetylation of a synthetic, biotinylated Histone-H4-derived peptide by the enzyme.
In this case 50 nl DMSO were used instead of compounds. […] IC50 values were determined by regression analysis based on a 4 parameter equation (minimum, maximum, ICM, Hill; Y=Max+(Min−Max)/(1+(X/ICso) Hill) using the Screener Software (Genedata).

[5] = system: ESR1 transcription (luciferase signal in MVLN cells); experiment: Repression of ESR1 transcription, luciferase reporter in MVLN cells; assay type: cell-based; settings: inhibition of luciferase signal in MVLN cells, arithmetic mean
Outline: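 MVLN cells (constitutive ER, stably carrying a Vitellogenin A2 hormone-responsive element–luciferase reporter) treated in duplicate; luciferase read after 24 h. Cell density checked by Alamar Blue fluorescence (530/590 nm) after 2 h to exclude cell-loss effects.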

[6] = Homo sapiens, MDA-MB-436, 144 h

Recombinant human His-tagged Kat6a protein (amino acids 194-810), sequence (Q92794 194-810): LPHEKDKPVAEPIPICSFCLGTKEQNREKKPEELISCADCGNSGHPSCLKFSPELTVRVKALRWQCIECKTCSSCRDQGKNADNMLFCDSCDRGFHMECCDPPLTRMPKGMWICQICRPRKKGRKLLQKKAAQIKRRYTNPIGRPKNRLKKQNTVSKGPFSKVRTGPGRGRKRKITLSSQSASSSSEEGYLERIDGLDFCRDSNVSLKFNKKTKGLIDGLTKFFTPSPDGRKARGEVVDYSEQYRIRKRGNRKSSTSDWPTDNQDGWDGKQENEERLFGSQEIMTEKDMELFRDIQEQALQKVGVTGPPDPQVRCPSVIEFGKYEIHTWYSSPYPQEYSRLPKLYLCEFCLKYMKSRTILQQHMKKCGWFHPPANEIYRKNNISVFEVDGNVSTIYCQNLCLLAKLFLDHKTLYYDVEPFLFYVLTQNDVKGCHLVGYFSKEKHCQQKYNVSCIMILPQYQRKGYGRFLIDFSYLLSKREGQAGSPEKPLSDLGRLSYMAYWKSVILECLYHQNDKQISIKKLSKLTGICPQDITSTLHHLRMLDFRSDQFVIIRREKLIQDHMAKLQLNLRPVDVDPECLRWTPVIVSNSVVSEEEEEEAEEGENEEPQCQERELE

## CN(C)c1ccc2cc(C(=O)NS(=O)(=O)c3ccccc3OC3COC3)oc2c1 [Example 82, 6-(Dimethylamino)-N-{2-[(oxetan-3-yl)oxy]benzene-1-sulfonyl}-1-benzofuran-2-carboxamide]
[1]
  pIC50: 6.63
[2]; [6]
  EC50: > 20000 nM
[3]; Homo sapiens, ZR-75-1, 144 h
  EC50: 2e-07 M
[4]
  pIC50: 6.58
[5]; Homo sapiens, MVLN
  IC50: 201 nM

## COc1ccc2cccnc2c1S(=O)(=O)NC(=O)c1cc2ccc(N(C)C)cc2o1 [Example 70, 6-(Dimethylamino)-N-(7-methoxyquinoline-8-sulfonyl)-1-benzofuran-2-carboxamide]
[1]
  pIC50: 6.91
[2]; [6]
  EC50: > 20000 nM
[3]; Homo sapiens, ZR-75-1, 144 h
  EC50: 1.63e-07 M
[4]
  pIC50: 6.96
[5]; Homo sapiens, MVLN
  IC50: 71.3 nM

## CC(C)Oc1ccccc1S(=O)(=O)NC(=O)c1cc2ccc(N(C)C)cc2o1 [Example 66, 6-(Dimethylamino)-N-{2-[(propan-2-yl)oxy]benzene-1-sulfonyl}-1-benzofuran-2-carboxamide]
[1]
  pIC50: 7.31
[2]
  EC50: > 20000 nM
[3]
  EC50: 5.47e-08 M
[4]
  pIC50: 7.23
[5]
  IC50: 31 nM

## CCCOc1ccc(C)cc1S(=O)(=O)NC(=O)c1cc2ccc(N(C)C)cc2o1 [Example 115, 6-(Dimethylamino)-N-(5-methyl-2-propoxybenzene-1-sulfonyl)-1-benzofuran-2-carboxamide]
[1]
  pIC50: 7.19
[2]; [6]
  EC50: > 20000 nM
[3]; Homo sapiens, ZR-75-1, 144 h
  EC50: 7.02e-08 M
[4]
  pIC50: 7.06
[5]; Homo sapiens, MVLN
  IC50: 64.2 nM

## COc1ccccc1S(=O)(=O)NC(=O)c1cc2c(F)cc(N(C)C)cc2o1 [Example 112, 6-(Dimethylamino)-4-fluoro-N-(2-methoxybenzene-1-sulfonyl)-1-benzofuran-2-carboxamide]
[1]
  pIC50: 7.75
[2]; [6]
  EC50: > 20000 nM
[3]; Homo sapiens, ZR-75-1, 144 h
  EC50: 4.78e-08 M
[4]
  pIC50: 7.74
[5]; Homo sapiens, MVLN
  IC50: 45.2 nM

## COc1ccc(Br)cc1S(=O)(=O)NC(=O)c1cc2ccc(N(C)C)cc2o1 [Example 148, N-(5-Bromo-2-methoxybenzene-1-sulfonyl)-6-(dimethylamino)-1-benzofuran-2-carboxamide]
[1]
  pIC50: 6.98
[2]; [6]
  EC50: > 20000 nM
[3]; Homo sapiens, ZR-75-1, 144 h
  EC50: 1.28e-07 M
[4]
  pIC50: 7.17
[5]; Homo sapiens, MVLN
  IC50: 121 nM

## CCc1cccc(OC)c1S(=O)(=O)NC(=O)c1cc2ccc(N(C)C)cc2o1 [Example 147, 6-(Dimethylamino)-N-(2-ethyl-6-methoxybenzene-1-sulfonyl)-1-benzofuran-2-carboxamide]
[1]
  pIC50: 7.01
[2]; [6]
  EC50: > 20000 nM
[3]; Homo sapiens, ZR-75-1, 144 h
  EC50: 7.83e-08 M
[4]
  pIC50: 7.16
[5]; Homo sapiens, MVLN
  IC50: 86.8 nM

## CCOc1cccc(-c2ccccc2)c1S(=O)(=O)NC(=O)c1cc2ccc(N(C)C)cc2o1 [Example 80, 6-(Dimethylamino)-N-(3-ethoxy[1,1′-biphenyl]-2-sulfonyl)-1-benzofuran-2-carboxamide]
[1]
  pIC50: 7.13
[2]; [6]
  EC50: > 20000 nM
[3]; Homo sapiens, ZR-75-1, 144 h
  EC50: 3.29e-07 M
[4]
  pIC50: 7.16
[5]; Homo sapiens, MVLN
  IC50: 172 nM

## CN(C)c1ccc2cc(C(=O)NS(=O)(=O)c3ccccc3-c3ccccc3)oc2c1C(F)(F)F [Example 202, N-([1,1′-biphenyl]-2-sulfonyl)-6-(dimethylamino)-7-(trifluoromethyl)-1-benzofuran-2-carboxamide]
[1]
  pIC50: 5.71
[2]; [6]
  EC50: > 20000 nM
[3]; Homo sapiens, ZR-75-1, 144 h
  EC50: > 2e-05 M
[4]
  pIC50: 5.52
[5]; Homo sapiens, MVLN
  IC50: > 20000 nM

## CN(C)c1ccc2cc(C(=O)NS(=O)(=O)c3cccc4ccc(Cl)nc34)oc2c1 [Example 126, N-(2-Chloroquinoline-8-sulfonyl)-6-(dimethylamino)-1-benzofuran-2-carboxamide]
[1]
  pIC50: 7.69
[2]; [6]
  EC50: > 20000 nM
[3]; Homo sapiens, ZR-75-1, 144 h
  EC50: 6.98e-08 M
[4]
  pIC50: 7.62
[5]; Homo sapiens, MVLN
  IC50: 30.6 nM

## O=C(NS(=O)(=O)c1ccccc1-c1ccccc1)c1cc2ccc(N3CCCCC3)cc2o1 [Example 47, N-([1,1′-Biphenyl]-2-sulfonyl)-6-(piperidin-1-yl)-1-benzofuran-2-carboxamide]
[1]
  pIC50: 5.11
[2]; [6]
  EC50: > 20000 nM
[3]; Homo sapiens, ZR-75-1, 144 h
  EC50: > 2e-05 M
[4]
  pIC50: 4.80
[5]; Homo sapiens, MVLN
  IC50: > 20000 nM

## CC(C)c1ccccc1S(=O)(=O)NC(=O)c1cc2ccc(N(C)C)cc2o1 [Example 77, 6-(Dimethylamino)-N-[2-(propan-2-yl)benzene-1-sulfonyl]-1-benzofuran-2-carboxamide]
[1]
  pIC50: 6.57
[2]; [6]
  EC50: > 20000 nM
[3]; Homo sapiens, ZR-75-1, 144 h
  EC50: 1.48e-06 M
[4]
  pIC50: 6.26
[5]; Homo sapiens, MVLN
  IC50: 152 nM

## CCCOc1ccccc1S(=O)(=O)NC(=O)c1cc2c(F)cc(N(C)C)cc2o1 [Example 111, 6-(Dimethylamino)-4-fluoro-N-(2-propoxybenzene-1-sulfonyl)-1-benzofuran-2-carboxamide]
[1]
  pIC50: 8.05
[2]; [6]
  EC50: > 20000 nM
[3]; Homo sapiens, ZR-75-1, 144 h
  EC50: 4.89e-08 M
[4]
  pIC50: 7.72
[5]; Homo sapiens, MVLN
  IC50: 15.4 nM

## CCOc1ccc(C)cc1S(=O)(=O)NC(=O)c1cc2ccc(N(C)C)cc2o1 [Example 67, 6-(Dimethylamino)-N-(2-ethoxy-5-methylbenzene-1-sulfonyl)-1-benzofuran-2-carboxamide]
[1]
  pIC50: 7.37
[2]; [6]
  EC50: > 20000 nM
[3]; Homo sapiens, ZR-75-1, 144 h
  EC50: 4.08e-08 M
[4]
  pIC50: 6.93
[5]; Homo sapiens, MVLN
  IC50: 40.2 nM

## CN(C)c1ccc2cc(C(=O)NS(C)(=O)=O)oc2c1 [Example 63, 6-(Dimethylamino)-N-(methanesulfonyl)-1-benzofuran-2-carboxamide]
[1]
  pIC50: 4.78
[2]; [6]
  EC50: > 20000 nM
[3]; Homo sapiens, ZR-75-1, 144 h
  EC50: > 2e-05 M
[4]
  pIC50: < 4.70
[5]; Homo sapiens, MVLN
  IC50: > 20000 nM

## CCS(=O)(=O)NC(=O)c1cc2ccc(N(C)C)cc2o1 [Example 61, 6-(Dimethylamino)-N-(ethanesulfonyl)-1-benzofuran-2-carboxamide]
[1]
  pIC50: 4.79
[2]; [6]
  EC50: > 20000 nM
[3]; Homo sapiens, ZR-75-1, 144 h
  EC50: 1.77e-05 M
[4]
  pIC50: 5.01
[5]; Homo sapiens, MVLN
  IC50: > 20000 nM

## CCOc1cccc(C)c1S(=O)(=O)NC(=O)c1cc2ccc(N(C)C)cc2o1 [Example 116, 6-(Dimethylamino)-N-(2-ethoxy-6-methylbenzene-1-sulfonyl)-1-benzofuran-2-carboxamide]
[1]
  pIC50: 6.34
[2]; [6]
  EC50: > 20000 nM
[3]; Homo sapiens, ZR-75-1, 144 h
  EC50: 3.24e-07 M
[4]
  pIC50: 6.29
[5]; Homo sapiens, MVLN
  IC50: 270 nM

## CN(c1ccccc1)c1ccc2cc(C(=O)NS(=O)(=O)c3ccccc3Cl)oc2c1 [Example 8, N-(2-Chlorophenyl)sulfonyl-6-(N-methylanilino)benzofuran-2-carboxamide]
[1]
  pIC50: 5.30
[2]; [6]
  EC50: > 20000 nM
[3]; Homo sapiens, ZR-75-1, 144 h
  EC50: > 2e-05 M
[4]
  pIC50: 5.36
[5]; Homo sapiens, MVLN
  IC50: > 20000 nM

## CCOc1ccccc1S(=O)(=O)NC(=O)c1cc2c(C(F)(F)F)cc(N(C)C)cc2o1 [Example 195, 6-(Dimethylamino)-N-((2-ethoxyphenyl)sulfonyl)-4-(trifluoromethyl)benzofuran-2-carboxamide]
[1]
  pIC50: 8.24
[2]; [6]
  EC50: > 20000 nM
[3]; Homo sapiens, ZR-75-1, 144 h
  EC50: 8.71e-07 M
[4]
  pIC50: 7.83
[5]; Homo sapiens, MVLN
  IC50: 716 nM

## CN(C)c1ccc2cc(C(=O)NS(=O)(=O)c3ccccc3OCC3CC3)oc2c1 [Example 71, N-[2-(Cyclopropylmethoxy)benzene-1-sulfonyl]-6-(dimethylamino)-1-benzofuran-2-carboxamide]
[1]
  pIC50: 7.14
[2]; [6]
  EC50: > 20000 nM
[3]; Homo sapiens, ZR-75-1, 144 h
  EC50: 1.92e-07 M
[4]
  pIC50: 6.88
[5]; Homo sapiens, MVLN
  IC50: 71.9 nM

Reference: US12357603B2, “Acyl sulfonamides for treating cancer” (Bayer Aktiengesellschaft, priority 2019, dated 2025)
